Data reported in patent US6468522B1, “Controlled release of thioamide moiety-containing therapeutic agents” (priority 1999, dated 2002).

Experiments:
[1] = Reductive release of drug from disulfide conjugate (DTT or glutathione, TLC); type: physicochemical; details: organic phase
Description: III Release of UC781 from mPEG-S—S-UC781. […] Then, 0.5 ml of 6 mM dithiothreitol (DTT) in DCM was added to the conjugate solution.
After 2 hours at room temperature, the reaction mixture was taken to dryness by speed vacuum.
In an alternate procedure to the above, cysteamine may be used in place of 1-amino-2-methyl-2-propanethiol, which produces a UC781 conjugate (PEG-CO—NH—CH2—CH2—S—S—UC781) with less sterically hindered thiol groups and therefore with a ˜100-fold faster release under reducing conditions.

[2] = Kinetics following intramuscular injection of PEG-S-S-UC781 in mice; type: in vivo
Description: An in-vivo experiment was done twice in mice (about 25 g, […]), performed according to protocol #I00-001, approved by the IACUC. […] Twenty mg, equivalent to 0.5 mg of UC781, was dissolved in 1 ml of PBS and injected into the leg muscle. At each time point, a mouse was euthanized, blood was collected and the injected muscle was removed. The blood samples were treated with 2 volumes of acetonitrile as described above. The tissue samples were homogenized with 1 ml of PBS and then treated with 2 volumes of acetonitrile, as above. The samples were then analyzed by reverse phase HPLC. […] Recovery and extraction efficiency from the muscle was tested by injection into the excised muscle from a freshly euthanized mouse.

[3] = Kinetics following intravenous injection of PEG-S-S-UC781 in rabbits; type: in vivo; details: rabbit
Description: The wavelength for detection of UC781 is 290 nm.
An in-vivo experiment was done in duplicate in rabbits (about 3.6 kg, New Zealand white, female), performed according to protocol #I99-054 approved by the IACUC of UMDNJ-Robert Wood Johnson Medical School. […] Blood samples were drawn from the auricular artery of the opposite ear prior to and at predetermined time points after injection. Immediately after the blood was drawn, 1 ml was mixed with 2 ml of acetonitrile, vortexed, kept on ice for 10 min and then centrifuged at 1000×g for 10 min at 4° C. The supernatant was collected and analyzed by reverse phase HPLC, as described above. Blood levels were determined with time by HPLC with and without the DTT reductive cleavage step (FIG. 7).

HIV-RT = HIV-RT (Human immunodeficiency virus type 1 group M subtype B, UniProt P03366); test: Reverse transcriptase (RT) inhibition assay; type: biochemical; details: for UC781 concentration found by RT assay: predicted 30 nM
Description: UC781 standard solutions were prepared in DMSO. The stock solution of HIV-RT (13.5 Units/μl) was diluted to 25 mUnits/μl in buffer comprising 50 mM Tris-HCl, pH 8.0, 1 mM DTT, 0.01% bovine serum albumin (BSA). Each assay tube contained 40 μl of a solution comprising 50 mM Tris-HCl, pH 8.0, 4 mM DTT, 12.4 mM MgCl2, 50 mM KCl, 0.01% BSA, 10 μg/ml poly(A), 0.01 mM dTTP and […] [α-^32P]dTTP, 2 μl of diluted RT and 3 μl of sample dissolved in DMSO. Samples were incubated at 37° C. for 30 minutes. The polymerization reaction was stopped by adding 0.15 mg/ml of salmon sperm DNA and chilling on ice. An aliquot (20 μl) of each reaction mixture was spotted onto square stamped GF/C filter paper (12.5 cm in diameter) presoaked with 10% trichloroacetic acid (TCA). After the spots were dry, the paper was rinsed with 50 ml of ice cold 10% TCA twice, 50 ml of ice cold water three times and then once with 25 ml of ice cold 95% ethanol in a Buchner funnel. The paper was dried, cut into squares and each square was counted in 4 ml of LSC cocktail (National Diagnostics).
The reverse transcriptase inhibition (RT) assay was used to confirm that the compound released in blood is truly active UC781. […] As a control, authentic UC781 was run on the HPLC column and the peak was collected at 24.2 minutes. […] An aliquot of each HPLC fraction, providing a predicted concentration of 30 nM in the RT assay, was analyzed.

in vitro = details: rabbit
Description: UC781 was analyzed using an HPLC reverse phase column, PRP-1 (Hamilton, Reno, Nev.), under the following condition: mobile phase A: 20% acetonitrile, mobile phase B: 90% acetonitrile, flow rate: 1 ml/min. Gradient: 0-2 min, 100% A; 2-20 min, linear gradient from 100% A to 100% B; 20-28 min, 100% B; 28—30 min, linear gradient from 100% B to 100% A; 30-35 min, 100% A. Under these experimental conditions, the retention time for UC781 is 24.2 min. The wavelength for detection of UC781 is 290 nm.
To each 1 ml sample of EDTA-treated rabbit blood, 2 ml of acetonitrile was added, mixed and kept on ice for 10 min. The mixture was centrifuged at 1000×g for 10 min. The supernatant was collected and an aliquot (300 μl) was injected into the reverse phase column. […] After centrifugation, 400 μl of the supernatant was analyzed, either without or with DTT pretreatment (3 mM for 2 hours at room temperature).
However, prior reduction with DTT should give the total concentration of UC781 since the conjugated UC781 is converted into the free form prior to HPLC. […] Recovery through the extraction procedure was determined by spiking a known amount of either free or conjugated UC781 into EDTA-treated rabbit blood prior to acetonitrile extraction.

Row | Structure (SMILES) | release of drug from conjugate by DTT [1] | level of UC781 in tissue samples ([2]; mouse injected muscle, after 1 hour) | UC781 in blood samples ([2]; mouse, im, HPLC) | UC781 concentration in plasma higher than in matched whole blood ([3]; EDTA-treated blood, duplicate sample) | half-life of UC781 in the bloodstream ([3]; after iv PEG-S-S-UC781) | UC781 concentration found by RT assay (HIV-RT; HPLC peak fraction of rabbit blood 5 min after iv PEG-S-S-UC781) | activity of compound recovered from blood (HIV-RT; RT assay, blood versus standard) | UC781 concentration found by RT assay (HIV-RT; authentic UC781 standard HPLC fraction) | recovery at 10 min, 10 µg/mL (in vitro)
1 | O=c1[nH]c(=S)ccn1[C@@H]1O[C@H](CO)[C@@H](O)[C@H]1O [4-thiouridine, 4-Thiouridine] | reductively released |  |  |  |  |  |  |  | 
2 | CC(C)=CCOc1cc(NC(=S)c2ccoc2C)ccc1Cl [UC781, N-[4-chloro-3-(3-methyl-2-butenyloxy)phenyl]-2-methyl-3-furancarbothioamide] |  | more than 10% | below the detection limit | about 10% | several minutes | 26 nM | fully active | 27 nM | 113%
